Measurements published in the supplement of paper PMC10307832.

Legend:
Experiment in all cases: relative viability (nuclei count vs DMSO), 5 days (fraction); higher = more cells survive
[1] = compound: CCc1c2c(nc3ccc(OC(=O)N4CCC(N5CCCCC5)CC4)cc13)-c1cc3c(c(=O)n1C2)COC(=O)[C@]3(O)CC [Irinotecan] + Cc1cc(Nc2cc(N3CCN(C)CC3)nc(Sc3ccc(NC(=O)C4CC4)cc3)n2)n[nH]1 [Tozasertib] (partner 0.1 µM)
Method in brief: (§1)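 Cells from lung cancer lines were seeded into 1536-well plates and, one day later, dosed by pin tool. Treatments were either a single drug or a fixed dose of an anchor drug with five library-drug doses (not always all listed) in √10 steps. After 5 days, nuclei were stained in a one-step fixation (final 0.05% Triton X-100, 1% formaldehyde, 1 ug/ml Hoechst) and counted on 4× images, and relative viability is the treated-to-vehicle nuclei ratio, as the median of duplicate plates.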

[2] = compound: CC[C@@H](C)CNCC(=O)N1CCC2=C([C@@H]1COC3=CC=CC(=C3)C)C=CS2 [RU-SKI 43] + Cc1nc(NC(=O)N2CCC[C@H]2C(N)=O)sc1-c1ccnc(C(C)(C)C(F)(F)F)c1 [Alpelisib] (partner 2 µM)
Method in brief: as §1

[3] = compound: Cn1cc(-c2cnc3ccc4ccc(CS(=O)(=O)NCc5ccccn5)cc4c(=O)c3c2)cn1 [MK-8033] + CC1(C)CCC(c2ccc(Cl)cc2)=C(CN2CCN(c3ccc(C(=O)NS(=O)(=O)c4ccc(N[C@H](CCN5CCOCC5)CSc5ccccc5)c(S(=O)(=O)C(F)(F)F)c4)cc3)CC2)C1 [Navitoclax] (partner 0.5 µM)
Method in brief: as §1

[4] = compound: Cn1cc(-c2cnc3ccc4ccc(CS(=O)(=O)NCc5ccccn5)cc4c(=O)c3c2)cn1 [MK-8033] + NC(=O)Nc1cc(-c2cccc(F)c2)sc1C(=O)N[C@H]1CCCNC1 [AZD7762] (partner 0.2 µM)
Method in brief: as §1

Cell Line | relative viability ([1]; first compound 0.6325 µM) | relative viability ([1]; first compound 2 µM) | relative viability ([1]; first compound 6.325 µM) | relative viability ([1]; first compound 20 µM) | relative viability ([2]; first compound 0.1 µM) | relative viability ([2]; first compound 0.3162 µM) | relative viability ([2]; first compound 1 µM) | relative viability ([2]; first compound 3.162 µM) | relative viability ([2]; first compound 10 µM) | relative viability ([3]; first compound 0.02 µM) | relative viability ([3]; first compound 0.06325 µM) | relative viability ([3]; first compound 0.2 µM) | relative viability ([3]; first compound 0.6325 µM) | relative viability ([3]; first compound 2 µM) | relative viability ([4]; first compound 0.02 µM) | relative viability ([4]; first compound 0.06325 µM) | relative viability ([4]; first compound 0.2 µM) | relative viability ([4]; first compound 0.6325 µM) | relative viability ([4]; first compound 2 µM)
NCI-H727 | 0.524 | 0.551 | 0.47 | 0.507 | 0.571 | 0.477 | 0.729 | 0.249 | 0.479 | 0.377 | 0.435 | 0.311 | 0.465 | 0.486 | 0.697 | 0.614 | 0.519 | 0.758 | 0.574
NCI-H1355 | – | 0.486 | 0.311 | 0.227 | 0.826 | 0.877 | 0.924 | 0.956 | 0.921 | 0.911 | 0.897 | 0.894 | 0.981 | 0.928 | 0.75 | 0.639 | 0.633 | 0.735 | 0.687
